Measured values as given in patent publication US4395408A, “Steroids” (Roussel Uclaf, priority 1980, dated 1983).
Structures can show the parent of a compound that is named as a salt.

Tested on: mice
Assay: Acute Toxicity (lethal dose LD0)
Format: in vivo
Settings: for DL0 I.P. (maximum dose which did not cause any mortality after 8 days): intraperitoneal

| SMILES | DL0 I.P. (maximum dose which did not cause any mortality after 8 days) | DL0 oral (maximum dose which did not cause any mortality after 8 days) |
| --- | --- | --- |
| C/C=C1/CC[C@H]2[C@@H]3CC[C@H]4C[C@H](N)CC[C@]4(C)[C@H]3CC[C@]12C [Example 1, (Z) 3α-amino-Δ^17(20) -5α-pregnene hydrochloride] | 100 mg/kg | ≥ 400 mg/kg |
| C[C@H](O)[C@@]1(O)CC[C@H]2[C@@H]3CC[C@H]4C[C@H](N)CC[C@]4(C)[C@H]3CC[C@@]21C [Example 3, (20S)3α-amino-5α-pregnane-17α,20-diol hydrochloride] | 60 mg/kg | 200 mg/kg |
| C[C@H](O)[C@H]1CC[C@H]2[C@@H]3CC[C@H]4C[C@@H](N)CC[C@@H]4[C@H]3CC[C@]12C [Example 5, (20S)3β-amino-19-nor-5α-pregnane-20-ol hydrochloride] | 100 mg/kg | 400 mg/kg |
| CC(=O)[C@@]1(O)CC[C@H]2[C@@H]3CC[C@H]4C[C@H](N)CC[C@]4(C)[C@H]3CC[C@@]21C [Example 6, 3α-amino-5α-pregnane-17α-ol-20-one hydrochloride] | 60 mg/kg | ≥ 400 mg/kg |
